Experimental data published in patent US20150203474A1, “SOLID FORMS COMPRISING INHIBITORS OF HCV NS5A, COMPOSITIONS THEREOF, AND USES THEREWITH” (PRESIDIO PHARMACEUTICALS ,INC., priority 2012, published 2015).
Read-outs that look alike come from different tables or passages of the source.

Assay: PK study of Form A of Compound I in dogs
Format: in vivo
Details: PO dose of 75 mg/kg
Protocol: The pharmacokinetics (PK) properties of Form A of Compound I and Form I of Compound II were determined in a series of comprehensive experiments in preclinical species including Sprague-Dawley rats, beagle dogs, cynomolgus monkeys. In those studies, the Form A crystalline salt of Compound I (and Form I crystalline salt of Compound II) was formulated in saline, 0.5% MC in saline or other commonly used suitable formulation vehicles to give a clear solution or as a suspension or a paste depending on the concentration intended to reach and the choice of vehicles. Dosing was by oral gavage. Blood samples were drawn and placed into individual tube containing K2EDTA. Blood samples were put on ice and centrifuged (2000 g for 5 minutes at 4° C.) to obtain plasma within 15 minutes after collection. Plasma samples were stored at approximately −80° C. freezer until analysis. For most of these analyses, Compound I (and Compound II) and the internal standard (IS) were extracted from rat, monkey or dog plasma by protein precipitation, and the extract was evaporated, reconstituted and analyzed using HPLC with tandem mass spectrometric detection (HPLC-MS/MS), see examples for further details. Calibration was accomplished by weighted linear regression of the ratio of the peak area of analyte to that of the added internal standard (IS). For the validated assay in rat and monkey EDTA plasma, the Lower Limit of Quantitation (LLOQ) for both compound 1 and 2 was 5.00 ng/mL, and the assay was linear from 5.00-1,000 ng/mL. PK parameters were calculated by non-compartmental analysis using WinNonlin (versions 4.1 through 6.1). Non-naïve Beagle Dog, 8.0-9.5 kg were used in the study. The dosing solution was prepared by dissolving 1.90 g of Form A of Compound I (1.67 g free base equivalent) in 222.237 mL of 0.5% MC and vortexed for 20 min, sonicated for 2 min to obtain a colorless clear solution. The animals were restrained manually, and approx. 0.6-1 mL blood/time point was collected from cephalic or saphenous veins into pre-cooled EDTA tubes. Blood samples were put on ice and centrifuged at 4° C. to obtain plasma within 30 minutes of sample collection. […] 5 μL of the supernatant was injected for LC-MS/MS analysis. • For dilution samples: • An aliquot of 10 μL plasma sample was added with 90 μL blank Beagle dog plasma. The dilution factor was 10. An aliquot of 30 μL dilution plasma was added with 200 μL IS in ACN (testosterone as IS, 100.0 ng/mL), the mixture was vortexed for 2 min and centrifuged at 12000 rpm for 5 min. 5 μL of the supernatant was injected for LC-MS/MS analysis.

[1] = beagle, dog, plasma, po, 75 mg/kg, Dog #1, read-out: plasma concentration
[2] = beagle, dog, plasma, po, 75 mg/kg, Dog #2, read-out: plasma concentration
[3] = beagle, dog, plasma, po, 75 mg/kg, Mean, read-out: mean plasma concentration

COC(=O)N[C@H](C(=O)N1CCC[C@H]1c1ncc(-c2ccc3cc(-c4ccc5nc([C@@H]6CCCN6C(=O)[C@@H](NC(=O)OC)C(C)C)[nH]c5c4)ccc3c2)[nH]1)C(C)C [Form A of Compound I]
plasma concentration (Beagle Dog, 0.083 hr, Dog #1): BQL
concentration at 0.083 hr (beagle, dog, plasma, po, 75 mg/kg, 0.083 hr, Dog #2, read-out: plasma concentration): 5.92 ng/mL
concentration at 0.083 hr (beagle, dog, plasma, po, 75 mg/kg, 0.083 hr, Mean, read-out: mean plasma concentration): 5.92 ng/mL
concentration at 0.25 h [1]: 267 ng/mL
concentration at 0.25 h [2]: 374 ng/mL
concentration at 0.25 h [3]: 320 ng/mL
concentration at 0.5 h (beagle, dog, plasma, po, 75 mg/kg, 0.5 hr, Dog #1): 1090 ng/mL
concentration at 0.5 hr (beagle, dog, plasma, po, 75 mg/kg, 0.5 hr, Dog #2, read-out: plasma concentration): 952 ng/mL
concentration at 0.5 hr (beagle, dog, plasma, po, 75 mg/kg, 0.5 hr, Mean, read-out: mean plasma concentration): 1020 ng/mL
concentration at 1 hr [1]: 1590 ng/mL
concentration at 1 hr [2]: 2050 ng/mL
concentration at 1 hr [3]: 1820 ng/mL
concentration at 2 hr [1]: 2980 ng/mL
concentration at 2 hr [2]: 2400 ng/mL
concentration at 2 hr [3]: 2690 ng/mL
concentration at 4 hr [1]: 3080 ng/mL
concentration at 4 hr [2]: 1540 ng/mL
concentration at 4 hr [3]: 2310 ng/mL
concentration at 6 hr [1]: 3590 ng/mL
concentration at 6 hr [2]: 1320 ng/mL
concentration at 6 hr [3]: 2450 ng/mL
concentration at 8 hr [1]: 3500 ng/mL
concentration at 8 hr [2]: 1040 ng/mL
concentration at 8 hr [3]: 2270 ng/mL
concentration at 24 hr [1]: 244 ng/mL
concentration at 24 hr [2]: 2160 ng/mL
concentration at 24 hr [3]: 1200 ng/mL
